Results on 16 compounds are retold here after patent US7071219B2, “Mono-acylated o-phenylendiamines derivatives” (Hoffmann-La Roche Inc., priority 2004, dated 2006).

Molecules are shown by their SMILES.

The assay has as its system histone deacetylase (HDAC). The experiment in a line: cellular acetylation assay (histone acetylation ELISA in PC3 cells). Particulars: compound 1 μM, 24 h incubation, ELISA with antibodies against acetylated histone H3 or H4. It counts as cell-based, human. How it is done: In this assay, acetylation of histones is monitored in PC3 cells. High acetylation correlates with inhibition of histone deacetylase by compounds. Cell viability is monitored in parallel to estimate the cytotoxicity of compounds.
PC3 cells, a human prostate carcinoma cell line, are seeded as 1800 cells per well of a 384-well microtiterplate in RPMI 1640 (including 5% FCS, 2 mM glutamine and pen/strep).
After 48 h at 37° C. pre-diluted compounds are added to a final concentration of 1 uM. Compounds are pre-diluted in dimethyl sulfoxide (DMSO) resulting in a final concentration of DMSO of 0.5% per well.
After 24 h incubation cell viability is determined by adding cell proliferation reagent WST-1 (Roche Molecular Biochemicals). Another 60 min later the optical density (OD) is measured (450 nm versus 690 nm).
After measurement the cell layer is prepared for the ELISA reaction. Medium is aspirated and cells are fixed in ethanol at −20° C. for 60 min. After washing with PBS/Tween the blocking solution (PBS/5% FCS/Tween) is added and the cell layer is washed again. Antibodies against acetylated histone H3 or H4 (rabbit polyklonal IgG, Upstate Biotechnologie) are added at a dilution of 1:200 for 60 min at 37° C. As a second antibody goat anti rabbit IgG (H+L) humanIgG adsorbed-HRP conjugate (Dako) is used (1:2000 diluted). Cells are washed 3 times and the peroxidase substrate ABTS is allowed to react for 30–60 min at 37° C. The OD is measured at 405 nm.
The percentage of acetylation is calculated after substraction of blank O.D.s: […]
For orientation: An ELISA detects its analyte on a solid surface through an enzyme-linked reagent.
With `NC(=O)c1ccc(C(=O)Nc2ccccc2N)s1` [Example 1-44, thiophene-2,5-dicarboxylic acid 2-amide 5-[(2-amino-phenyl)-amide]], the “cell acetylation (PC3, 1 μM) [% of control]” value was 185.6 % of control.

Regarding `CCCCN(CCCC)CCCNC(=O)c1ccc(C(=O)Nc2ccccc2N)s1` [Example 1-4, Thiophene-2,5-dicarboxylic acid 2-[(2-amino-phenyl)-amide]5-[(3-dibutylamino-propyl)-amide]], the “cell acetylation (PC3, 1 μM) [% of control]” value is on record as 195.7 % of control.

In the case of `CN(C)CCNC(=O)c1ccc(C(=O)Nc2ccccc2N)s1` [Example 1-18, Thiophene-2,5-dicarboxylic acid 2-[(2-amino-phenyl)-amide]5-[(2-dimethylaminoethyl)-amide]], the “cell acetylation (PC3, 1 μM) [% of control]” value is 233.9 % of control.

In the case of `CCC(C)CNC(=O)c1ccc(C(=O)Nc2ccccc2N)s1` (stereo not shown) [Example 1-35, Thiophene-2,5-dicarboxylic acid 2-[(2-amino-phenyl)-amide]5-[(2-methyl-butyl)-amide]], the “cell acetylation (PC3, 1 μM) [% of control]” value was 135.4 % of control.

Regarding `CCCC(C)NC(=O)c1ccc(C(=O)Nc2ccccc2N)s1` (stereo not shown) [Example 1-1, Thiophene-2,5-dicarboxylic acid 2-[(2-amino-phenyl)-amide]5-[(1-methyl-butyl)-amide]], the “cell acetylation (PC3, 1 μM) [% of control]” value is 137.2 % of control.

As for `CCOC(=O)CC(C)NC(=O)c1ccc(C(=O)Nc2ccccc2N)nc1` (stereo not shown) [Example 3-9, 3-{[6-(2-amino-phenylcarbamoyl)-pyridine-3-carbonyl]-amino}-butyric acid ethyl ester], the “cell acetylation (PC3, 1 μM) [% of control]” value is 211.6 % of control.

Regarding `CCC(C)NC(=O)c1ccc(C(=O)Nc2ccccc2N)s1` (stereo not shown) [Example 1-24, Thiophene-2,5-dicarboxylic acid 2-[(2-amino-phenyl)-amide]5-sec-butylamide], the “cell acetylation (PC3, 1 μM) [% of control]” value is 211.2 % of control.

`CCCCN(C)C(=O)c1ccc(C(=O)Nc2ccccc2N)s1` [Example 1-19, thiophene-2,5-dicarboxylic acid 2-[(2-amino-phenyl)-amide]5-(butyl-methyl-amide)]: the “cell acetylation (PC3, 1 μM) [% of control]” value was 118.8 % of control.

Take `CN(C)CCNC(=O)c1ccc(C(=O)Nc2ccccc2N)nc1` [Example 3-5, pyridine-2,5-dicarboxylic acid 2-[(2-amino-phenyl)-amide]5-[(2-dimethylamino-ethyl)-amide]]: the “cell acetylation (PC3, 1 μM) [% of control]” value is 154.6 % of control.

For the compound `CC(C)N(CCNC(=O)c1ccc(C(=O)Nc2ccccc2N)nc1)C(C)C` [Example 3-1, pyridine-2,5-dicarboxylic acid 2-[(2-amino-phenyl)-amide]5-[(2-diisopropylamino-ethyl)-amide]], the “cell acetylation (PC3, 1 μM) [% of control]” value is 244.8 % of control.

As for `CC(=O)Nc1ccc(C(=O)Nc2ccccc2N)cc1` [Reference Compound, 4-acetylamino-N-(2-aminophenyl)-benzamide, reference compound], the “cell acetylation (PC3, 1 μM) [% of control]” value is reported as 152 % of control.

Turning to `CCCCCC(C)NC(=O)c1ccc(C(=O)Nc2ccccc2N)s1` (stereo not shown) [Example 1-6, Thiophene-2,5-dicarboxylic acid 2-[(2-amino-phenyl)-amide]5-[(1-methyl-hexyl)-amide]], the “cell acetylation (PC3, 1 μM) [% of control]” value is on record as 122.9 % of control.

On to `CC(C)N(CCNC(=O)c1ccc(C(=O)Nc2ccccc2N)cn1)C(C)C` [Example 2-1, Pyridine-2,5-dicarboxylic acid 5-[(2-amino-phenyl)-amide]2-[(2-diisopropylamino-ethyl)-amide]], for which the “cell acetylation (PC3, 1 μM) [% of control]” value is reported as 206.6 % of control.

For the compound `CCCCN(CCCC)CCCNC(=O)c1ccc(C(=O)Nc2ccccc2N)nc1` [Example 3-20, pyridine-2,5-dicarboxylic acid 2-[(2-amino-phenyl)-amide]5-[(3-dibutylamino-propyl)-amide]], the “cell acetylation (PC3, 1 μM) [% of control]” value is listed as 223.8 % of control.

For the compound `CN(C)CC(C)(C)CNC(=O)c1ccc(C(=O)Nc2ccccc2N)s1` [Example 1-17, Thiophene-2,5-dicarboxylic acid 2-[(2-amino-phenyl)-amide]5-[(3-dimethylamino-2,2-dimethylpropyl)-amide]], the “cell acetylation (PC3, 1 μM) [% of control]” value is 149.8 % of control.

With `CC(C)N(CCNC(=O)c1ccc(C(=O)Nc2ccccc2N)cc1)C(C)C` [Example 4-1, N-(2-amino-phenyl)-N′-(2-diisopropylamino-ethyl)-terephthalamide], the “cell acetylation (PC3, 1 μM) [% of control]” value was 399.3 % of control.
